We go through two molecules from patent US8158152B2, “Lyophilization process and products obtained thereby” (SciDose LLC, priority 2005, dated 2012).

For data set [1] the following is noted: cited from earlier work.
Data set [2] is described as follows: Solubility as stated in words. Conditions: in the presence of small quantities of HCl. The class given is physicochemical.

As for `O=P1(N(CCCl)CCCl)NCCCO1` (stereo not shown) [cyclophosphamide], the solubility in ethanol entry in data set [1] (ethanol) was “highly soluble”. Also, the solubility in water entry in data set [1] (water) is on record as “sparingly soluble”.

Take `CCC(C)n1ncn(-c2ccc(N3CCN(c4ccc(OCC5COC(Cn6cncn6)(c6ccc(Cl)cc6Cl)O5)cc4)CC3)cc2)c1=O` (stereo not shown) [itraconazole]: the “solubility in non-aqueous solvents (e.g. THF)” value in data set [2] was “high concentrations of itraconazole can be dissolved”. In addition, the “solubility in solvents, as generally considered” value in data set [1] (general knowledge) is “soluble in methylene chloride only”.
